The text below walks through data of patent US20070254859A1 (priority 2006, published 2007).

One series has as its system Caco-2 cells. The settings on record: compound 30 μM on both sides, Rhodamine 123 10 μM, Bl-Ap direction, Caco-2 monolayers; read from FIG. 2.
A short description of the next series: in vivo. To be noted: male, Wistar-Hannover, rat, plasma, po, 12 mg/kg.

Method for in vivo: Male, Wistar-Hannover rats (257-313 g) were used; animals were cannulated in the jugular vein for blood sampling. Animals were individually housed at 18-26° C. with 30-70% humidity. Animals were allowed free movement and access to water with 12 h dark and light cycles. Dosing was 2-4 h after the beginning of a light cycle and dosing time across each group was consistent. All animals had access to water, ad libitum, and were fasted 8 h prior to dosing; food was returned 5 h post-dose. Animals were dosed using a 1 mL syringe. Group 1, the intravenous group (raloxifene, 2.5 mg/kg), was dosed using an infusion rate of ˜0.3 mL per minute.
Sampling—using an AccuSampler®, blood samples (˜120 μL) were collected from 4 animals/group/time point from a catheter inserted into the jugular vein. Blood samples were taken and removed blood volume was replaced by an equivalent volume of intraperitoneal saline after each draw. Blood samples were centrifuged and plasma transferred into a designated well of a 96-well plate. Samples were kept frozen (−80±10° C.) until sample preparation and HPLC/MS/MS analysis.
Internal standard (IS) solution was prepared in a 500 mL volumetric flask containing 1:1 v/v acetonitrile:methanol and ˜0.04 μM of saquinavir base. Individually, the 96-well plates were removed from the freezer (−80±10° C.) and allowed to warm to ambient temperature (˜45-50 min). The in vivo plasma samples, either 25 or 50 μL, were transferred into separate 1.5 mL micro-centrifuge tubes. Total plasma volume was brought to ˜100 μL by adding male Wistar-Hannover plasma (potassium EDTA). Subsequently, 200 μL of IS solution was added, capped, mixed (˜5 sec) and centrifuged at 13,200 rpm for 10 mm using an Eppendorf minispin centrifuge. The supernatant (˜250 μL) was transferred into individual wells of a 96-well plate. The 96-well plate was sealed and centrifuged at 3000 rpm for 10 min at 10° C. […] The 96-well plate was then placed into the auto-sampler cool-stack (˜6° C.) and analyzed via LC/MS/MS. Raloxifene, and raloxifene glucuronide standard curves and quality control (QC's) samples were prepared in an analogous way as described above. […] The limit of detection (LOD) for raloxifene was ˜0.2 ng/mL while the glucuronides were ˜0.1 ng/mL.

As to “d-α-tocopheryl polyethylene glycol succinate [TPGS 1000]”, the “RHO in vitro efflux inhibition” value with Caco-2 cells is reported as about 40%.
In general, AUC(0-t) refers to exposure summed from dosing to a finite time, without extrapolation to infinity. Read a low AUC(0-t) as less exposure. For orientation: Cmax means the highest concentration seen after dosing. Broadly, the Tmax is the time at which the peak concentration occurs. As usually defined, the bioavailability is dose-corrected exposure relative to a reference, in per cent. A low value points to little systemic uptake. Turning to `O=C(c1ccc(OCCN2CCCCC2)cc1)c1c(-c2ccc(O)cc2)sc2cc(O)ccc12` [raloxifene], in “in vivo”, the AUC(0-t) is 452 ng·h/mL, the Cmax is 50 to 60 ng/mL, the Tmax is about 4 h and the bioavailability is 3.6 ± 0.8%.
